Common to all, as to assay type: binding
The target of experiment [1] is T1, PCSK9 (Homo sapiens, UniProt Q8NBP7).
T1 construct: biotin (biotinylated); purchased
Put plainly: PCSK9 Alexa FRET Standard TR-FRET assay. The following applies: Ki calculated from IC50 and KD of AF cyclic peptide Reagent A; 0.5 nM PCSK9, 20 nM AF cyclic peptide; read-out: Alexa FRET Stdt TR-FRET. In outline: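 TR-FRET displacement with final 0.5 nM biotinylated PCSK9, 1.25 nM streptavidin-Eu and 20 nM AlexaFluor cyclic peptide in 50 mM HEPES pH 7.4, 0.15 M NaCl, 5 mM CaCl2, 0.01% BSA, 0.01% P20; ≥2 h at room temperature. IC50 by sigmoidal fit, converted to Ki (nM) using tracer KD.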

Experiment [2] deals with T1, PCSK9. Briefly: PCSK9 Alexa FRET Plus TR-FRET assay. In a few lines:
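TR-FRET competition between europium-labeled PCSK9 and AlexaFluor-tagged cyclic peptide (prepared at 1920 nM stock), incubated at least 2 h at room temperature. IC50 from sigmoidal nonlinear fit converted to Ki using the peptide KD; falling europium counts flag false-positive inhibition; values reported in nM.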
(In TR-FRET formats the signal depends on donor and acceptor labels being close together.)

Experiment [3] concerns the target T1, PCSK9. Put plainly: PCSK9 Alexa FRET Ultra TR-FRET assay. In a few lines:
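Competition of compounds with AlexaFluor-tagged cyclic peptide (1920 nM solution, not final) for europium-labeled PCSK9, read by TR-FRET after at least 2 h at room temperature. IC50 from sigmoidal fit, converted to Ki (nM) using peptide KD; falling europium counts flag false positives.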

The mark [4] stands for this setting: Ki calculated from IC50 and KD of AF cyclic peptide Reagent B, 0.5 nM PCSK9, 960 nM AF cyclic peptide, read-out: Alexa FRET Plus TR-FRET.
Setting [5] is: Ki Ultra, calculated from IC50 and KD of AF cyclic peptide, 0.5 nM PCSK9, 960 nM AF cyclic peptide, read-out: Alexa FRET Ultra TR-FRET.

Bounds are passed on as bounds.

T1 sequence (Q8NBP7 153-692): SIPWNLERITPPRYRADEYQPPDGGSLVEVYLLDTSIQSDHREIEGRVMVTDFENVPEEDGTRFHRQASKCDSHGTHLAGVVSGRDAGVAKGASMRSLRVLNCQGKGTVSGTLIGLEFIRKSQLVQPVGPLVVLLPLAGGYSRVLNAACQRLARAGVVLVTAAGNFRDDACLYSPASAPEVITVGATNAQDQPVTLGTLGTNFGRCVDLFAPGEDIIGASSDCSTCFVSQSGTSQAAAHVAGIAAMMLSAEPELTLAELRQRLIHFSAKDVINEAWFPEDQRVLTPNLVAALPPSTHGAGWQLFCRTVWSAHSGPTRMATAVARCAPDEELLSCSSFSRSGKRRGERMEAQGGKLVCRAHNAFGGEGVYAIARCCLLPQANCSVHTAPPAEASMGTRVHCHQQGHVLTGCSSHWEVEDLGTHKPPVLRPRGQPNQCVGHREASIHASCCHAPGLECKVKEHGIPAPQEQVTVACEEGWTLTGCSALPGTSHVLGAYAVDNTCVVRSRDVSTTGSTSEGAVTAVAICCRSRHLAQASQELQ

As to `COc1ccc(C[C@@H]2NC(=O)[C@H]([C@@H](C)O)NC(=O)[C@@H]3[C@@H]4CCN3C(=O)[C@@H]3Cc5cn(c6ccc(F)cc56)CCCCCCN(Cc5ccc(cc5)CCNC(=O)[C@]5(C)CCCN5C2=O)C(=O)CCC(=O)N[C@@H](C)C(=O)N[C@H](CNC(=O)COCCOCCNC(=O)CCCCC[N+](C)(C)CCNC(=O)COCCOCCNC(=O)COCCOCCNC(=O)CC[C@H](NC(=O)CCCCCCCCCCCCCCCCC(=O)O)C(=O)O)C(=O)N[C@@H](Cc2cccc(c2)CNC(=O)CO4)C(=O)N3)cc1` [Ex-6], the Ki on PCSK9 [1] was less than 1260 pM; at PCSK9 [2] it was 9 pM; on PCSK9 [3], 12 pM.
Regarding `COc1ccc(C[C@@H]2NC(=O)[C@H]([C@@H](C)O)NC(=O)[C@@H]3[C@@H]4CCN3C(=O)[C@@H]3Cc5cn(c6ccc(F)cc56)CCCCCCN(Cc5ccc(cc5)CCNC(=O)[C@]5(C)CCCN5C2=O)C(=O)CCC(=O)N[C@@H](C)C(=O)N[C@H](CN(CCC[N+](C)(C)C)C(=O)COCCOCCNC(=O)COCCOCCNC(=O)CC[C@H](NC(=O)CCCCCCCCCCCCCCCCC(=O)O)C(=O)O)C(=O)N[C@@H](Cc2cccc(c2)CNC(=O)CO4)C(=O)N3)cc1` [Ex-17], the Ki at PCSK9 [1] is less than 1260 pM; on PCSK9 [2] (setting [4]), 16 pM; at PCSK9 [3] (setting [5]), 18 pM.
Consider `COc1ccc(C[C@@H]2NC(=O)[C@H]([C@@H](C)O)NC(=O)[C@@H]3[C@@H]4CCN3C(=O)[C@@H]3Cc5cn(c6ccc(F)cc56)CCCCCCN(Cc5ccc(cc5)CCNC(=O)[C@]5(C)CCCN5C2=O)C(=O)CCC(=O)N[C@@H](C)C(=O)N[C@H](CNC(=O)CCCCC[N+](C)(C)CCNC(=O)CCCCC[N+](C)(C)CCNC(=O)COCCOCCNC(=O)COCCOCCNC(=O)CC[C@H](NC(=O)CCCCCCCCCCCCCCCCC(=O)O)C(=O)O)C(=O)N[C@@H](Cc2cccc(c2)CNC(=O)CO4)C(=O)N3)cc1` [Ex-26], for which the Ki was less than 1260 pM at PCSK9 [1], 6 pM on PCSK9 [2] (setting [4]) and 8 pM at PCSK9 [3] (setting [5]).
The matching figures for `COc1ccc(C[C@@H]2NC(=O)[C@H]([C@@H](C)O)NC(=O)[C@@H]3[C@@H]4CCN3C(=O)[C@@H]3Cc5cn(c6ccc(F)cc56)CCCCCCN(Cc5ccc(cc5)CCNC(=O)[C@]5(C)CCCN5C2=O)C(=O)CCC(=O)N[C@@H](C)C(=O)N[C@H](CNC(=O)CCOCCOCC[N+](C)(C)CCNC(=O)COCCOCCNC(=O)CC[C@H](NC(=O)CC[C@H](NC(=O)CC[C@H](NC(=O)CCCCCCCCCCCCCCCCC(=O)O)C(=O)O)C(=O)O)C(=O)O)C(=O)N[C@@H](Cc2cccc(c2)CNC(=O)CO4)C(=O)N3)cc1` [Ex-48]: less than 1260 pM, less than 6 pM and 9 pM.
As to `COc1ccc(C[C@@H]2NC(=O)[C@H]([C@@H](C)O)NC(=O)[C@@H]3[C@@H]4CCN3C(=O)[C@@H]3Cc5cn(c6ccc(F)cc56)CCCCCCN(Cc5ccc(cc5)CCNC(=O)[C@]5(C)CCCN5C2=O)C(=O)CCC(=O)N[C@@H](C)C(=O)N[C@H](CNC(=O)CCOCCOCCNC(=O)CCCCCCCCCCCCCCCCC(=O)O)C(=O)N[C@@H](Cc2cccc(c2)CNC(=O)CO4)C(=O)N3)cc1` [Ex-24], the Ki on PCSK9 [1] was less than 1260 pM; on PCSK9 [2] (setting [4]) it was 9 pM; on PCSK9 [3] (setting [5]), 18 pM.
The matching figures for `COc1ccc(C[C@@H]2NC(=O)[C@H]([C@@H](C)O)NC(=O)C3C4CCN3C(=O)[C@@H]3Cc5cn(c6ccc(F)cc56)CCCCCCN(Cc5ccc(cc5)CCNC(=O)[C@]5(C)CCCN5C2=O)C(=O)CCC(=O)N[C@@H](C)C(=O)N[C@H](CNC(=O)CCOCCOCC[N+](C)(C)CCNC(=O)CCOCCOCC[N+](C)(C)CCNC(=O)COCCOCCNC(=O)COCCOCCNC(=O)CCCCCCCCCCCCCCC(=O)O)C(=O)N[C@@H](Cc2cccc(c2)CNC(=O)CO4)C(=O)N3)cc1` [compound 43]: less than 1260 pM, less than 6 pM and 2 pM.
Consider `COc1ccc(C[C@@H]2NC(=O)[C@H]([C@@H](C)O)NC(=O)[C@@H]3[C@@H]4CCN3C(=O)[C@@H]3Cc5cn(c6ccc(F)cc56)CCCCCCN(Cc5ccc(cc5)CCNC(=O)[C@]5(C)CCCN5C2=O)C(=O)CCC(=O)N[C@@H](C)C(=O)N[C@H](CNC(=O)CCOCCOCC[N+](C)(C)CCNC(=O)COCCOCCNC(=O)COCCOCCNC(=O)C[C@H](NC(=O)CCCCCCCCCCCCCCCCC(=O)O)C(=O)O)C(=O)N[C@@H](Cc2cccc(c2)CNC(=O)CO4)C(=O)N3)cc1` [Ex-15], for which the Ki on PCSK9 [1] was less than 1260 pM; on PCSK9 [2], less than 6 pM; on PCSK9 [3], 5 pM.
Take `COc1ccc(C[C@@H]2NC(=O)[C@H]([C@@H](C)O)NC(=O)[C@@H]3[C@@H]4CCN3C(=O)[C@@H]3Cc5cn(c6ccc(F)cc56)C/C=C/CCCN(Cc5ccc(cc5)CCNC(=O)[C@]5(C)CCCN5C2=O)C(=O)CCC(=O)N[C@@H](C)C(=O)N[C@H](CNC(=O)CCCCC[N+](C)(C)CCNC(=O)COCCOCCNC(=O)COCCOCCNC(=O)CC[C@H](NC(=O)CCCCCCCCCCCCCCCCC(=O)O)C(=O)O)C(=O)N[C@@H](Cc2cccc(c2)CNC(=O)CO4)C(=O)N3)cc1` [Ex-25]: the values for the Ki on PCSK9 [1], at PCSK9 [2] (setting [4]) and on PCSK9 [3] (setting [5]) were less than 1260 pM, 6 pM and 9 pM, respectively.
For `COc1ccc(C[C@@H]2NC(=O)[C@H]([C@@H](C)O)NC(=O)[C@@H]3[C@@H]4CCN3C(=O)[C@@H]3Cc5cn(c6ccc(F)cc56)CCCCCCN(Cc5ccc(cc5)CCNC(=O)[C@]5(C)CCCN5C2=O)C(=O)CCC(=O)N[C@@H](C)C(=O)N[C@H](CNC(=O)CC[C@H](NC(=O)CCOCCOCC[N+](C)(C)CCNC(=O)COCCOCCNC(=O)COCCOCCNC(=O)CC[C@H](NC(=O)CCCCCCCCCCCCCCCCC(=O)O)C(=O)O)C(=O)O)C(=O)N[C@@H](Cc2cccc(c2)CNC(=O)CO4)C(=O)N3)cc1` [Ex-8], the Ki was less than 1260 pM on PCSK9 [1], 16 pM on PCSK9 [2] and 8 pM at PCSK9 [3].
For `COc1ccc(C[C@@H]2NC(=O)[C@H]([C@@H](C)O)NC(=O)[C@@H]3[C@@H]4CCN3C(=O)[C@@H]3Cc5cn(c6ccc(F)cc56)CCCCCCN(Cc5ccc(cc5)CCNC(=O)[C@]5(C)CCCN5C2=O)C(=O)CCC(=O)N[C@@H](C)C(=O)N[C@H](CNC(=O)COCCOCC[N+](C)(C)CCNC(=O)COCCOCCNC(=O)COCCOCCNC(=O)CC[C@H](NC(=O)CCCCCCCCCCCCCCCCC(=O)O)C(=O)O)C(=O)N[C@@H](Cc2cccc(c2)CNC(=O)CO4)C(=O)N3)cc1` [Ex-40], the Ki was less than 1260 pM at PCSK9 [1], 8 pM on PCSK9 [2] (setting [4]) and 4 pM at PCSK9 [3] (setting [5]).
Take `COc1ccc(C[C@@H]2NC(=O)[C@H]([C@@H](C)O)NC(=O)[C@@H]3[C@@H]4CCN3C(=O)[C@@H]3Cc5cn(c6ccc(F)cc56)CCCCCCN(Cc5ccc(cc5)CCNC(=O)[C@]5(C)CCCN5C2=O)C(=O)CCC(=O)N[C@@H](C)C(=O)N[C@H](CNC(=O)CCOCCOCC[N+](C)(C)CCNC(=O)COCCOCCNC(=O)COCCOCCNC(=O)CC[C@H](NC(=O)CCCCCCCCCCCCCCC(=O)O)C(=O)O)C(=O)N[C@@H](Cc2cccc(c2)CNC(=O)CO4)C(=O)N3)cc1` [Example 4]: the Ki at PCSK9 [1] is less than 1260 pM; on PCSK9 [2], less than 6 pM; on PCSK9 [3] it was 3 pM.
On to `COc1ccc(C[C@@H]2NC(=O)[C@H]([C@@H](C)O)NC(=O)[C@@H]3[C@@H]4CCN3C(=O)[C@@H]3Cc5cn(c6ccc(F)cc56)CCCCCCN(Cc5ccc(cc5)CCNC(=O)[C@]5(C)CCCN5C2=O)C(=O)CCC(=O)N[C@@H](CNC(=O)CCOCCOCC[N+](C)(C)CCNC(=O)COCCOCCNC(=O)COCCOCCNC(=O)CC[C@H](NC(=O)CC[C@H](NC(=O)CCCCCCCCCCCCCCCCC(=O)O)C(=O)O)C(=O)O)C(=O)N[C@H](C)C(=O)N[C@@H](Cc2cccc(c2)CNC(=O)CO4)C(=O)N3)cc1` [Ex-58], for which the Ki on PCSK9 [1] is less than 1260 pM; at PCSK9 [2] (setting [4]) it was 18 pM; on PCSK9 [3] (setting [5]) it was 79 pM.
The matching figures for `COc1ccc(C[C@@H]2NC(=O)[C@H]([C@@H](C)O)NC(=O)[C@@H]3[C@@H]4CCN3C(=O)[C@@H]3Cc5cn(c6ccc(F)cc56)CCCCCCN(Cc5ccc(cc5)CCNC(=O)[C@]5(C)CCCN5C2=O)C(=O)CCC(=O)N[C@@H](C)C(=O)N[C@H](CNC(=O)COCCOCCNC(=O)COCCOCCNC(=O)CC[C@H](NC(=O)CC[C@H](NC(=O)CCCCCCCCCCCCCCC(=O)O)C(=O)O)C(=O)O)C(=O)N[C@@H](Cc2cccc(c2)CNC(=O)CO4)C(=O)N3)cc1` [Ex-42]: less than 1260 pM, less than 6 pM and 10 pM.
Regarding `COc1ccc(C[C@@H]2NC(=O)[C@H]([C@@H](C)O)NC(=O)[C@@H]3[C@@H]4CCN3C(=O)[C@@H]3Cc5cn(c6ccc(F)cc56)C/C=C/CCCN(Cc5ccc(cc5)CCNC(=O)[C@]5(C)CCCN5C2=O)C(=O)CCC(=O)N[C@@H](C)C(=O)N[C@H](CNC(=O)CCOCCOCC[N+](C)(C)CCNC(=O)COCCOCCNC(=O)COCCOCCNC(=O)CC[C@H](NC(=O)CCCCCCCCCCCCCCC(=O)O)C(=O)O)C(=O)N[C@@H](Cc2cccc(c2)CNC(=O)CO4)C(=O)N3)cc1` [compound 46], the Ki at PCSK9 [1] is less than 1260 pM; on PCSK9 [2], less than 6 pM; on PCSK9 [3] it was 1 pM.

(Values after patent US12178842B2, “PCSK9 antagonist compounds” (MERCK SHARP & DOHME LLC, priority 2019, dated 2024).)
